Experimental findings from ChEMBL document CHEMBL4665828, “Glucosylpolyphenols as Inhibitors of Aβ-Induced Fyn Kinase Activation and Tau Phosphorylation: Synthesis, Membrane Permeability, and Exploratory Target Assessment within the Scope of Type 2 Diabetes and Alzheimer's Disease” (J Med Chem, 2020) are described below.

Active and inactive are the calls of the source. No cut-off for these calls is given here.

The target of data set [1] is T1, Tyrosine-protein kinase Fyn (Homo sapiens, UniProt P06241). In words: Inhibition of basal Fyn activation in hiPSC neural progenitor cells assessed as reduction in pFyn levels in absence of amyloid beta at 10 uM by DAPI staining based immunofluorescence assay. The note with it: induced pluripotent stem cell-derived neuron.
Target sequence in this assay (P06241 whole entry): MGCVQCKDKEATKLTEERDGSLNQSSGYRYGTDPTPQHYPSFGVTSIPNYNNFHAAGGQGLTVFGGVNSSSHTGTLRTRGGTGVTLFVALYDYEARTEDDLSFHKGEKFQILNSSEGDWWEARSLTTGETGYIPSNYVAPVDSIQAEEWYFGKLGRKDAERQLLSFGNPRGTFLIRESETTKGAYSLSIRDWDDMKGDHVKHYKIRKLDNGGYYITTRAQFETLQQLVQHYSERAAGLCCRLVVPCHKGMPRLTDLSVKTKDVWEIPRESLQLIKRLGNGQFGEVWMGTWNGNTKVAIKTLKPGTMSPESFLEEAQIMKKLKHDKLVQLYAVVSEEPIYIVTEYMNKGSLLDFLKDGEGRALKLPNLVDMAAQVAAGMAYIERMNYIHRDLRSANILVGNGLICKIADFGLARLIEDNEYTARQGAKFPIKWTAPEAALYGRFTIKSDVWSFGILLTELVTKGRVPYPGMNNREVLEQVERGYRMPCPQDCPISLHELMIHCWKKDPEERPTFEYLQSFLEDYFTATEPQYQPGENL
Data set [2] deals with Cholinesterase (Equus caballus) (UniProt P81908). Put plainly: Inhibition of equine serum BuChE at 100 uM using butyrylthiocholine iodide as substrate by Ellman's colorimetric analysis relative to control. On the technique in general: Ellman's reagent forms a yellow product with free thiols.
A short description of data set [3]: Octanol/water partition coefficient, log D of compound at pH 7.4 at 1 uM incubated for 2 hrs by LC-MS analysis. The class given is physicochemical.
Data set [4] concerns the target Acetylcholinesterase (Electrophorus electricus) (UniProt O42275). Put plainly: Inhibition of electric eel AChE at 100 uM using acetylthiocholine iodide as substrate by Ellman's colorimetric analysis relative to control.
The nature of data set [5]: Cytotoxicity against hiPSC neural cells assessed as reduction in cell viability at 10 uM incubated for 24 hrs by MTT assay. In kind it is cell-based. The conditions noted are these: human, induced pluripotent stem cell-derived neuron.
Data set [6] can be described thus: Cytotoxicity against hiPSC neural cells assessed as reduction in cell viability up to 50 uM incubated for 24 hrs by MTT assay. In kind it is cell-based. The conditions noted are these: human, induced pluripotent stem cell-derived neuron.
Data set [7] has as its target T1, Tyrosine-protein kinase Fyn. Put plainly: Inhibition of amyloid beta-induced Fyn activation in hiPSC neural cells assessed as reduction in tau phosphorylation at Thr 181 residue at 10 uM measured after 4 days by DAPI/Alexa fluor 594 staining based immunocytochemistry analysis. The conditions noted are these: Induced pluripotent stem cell-derived neuron, time 4.0 day.
Target sequence in this assay (P06241 2-537 limits assumed): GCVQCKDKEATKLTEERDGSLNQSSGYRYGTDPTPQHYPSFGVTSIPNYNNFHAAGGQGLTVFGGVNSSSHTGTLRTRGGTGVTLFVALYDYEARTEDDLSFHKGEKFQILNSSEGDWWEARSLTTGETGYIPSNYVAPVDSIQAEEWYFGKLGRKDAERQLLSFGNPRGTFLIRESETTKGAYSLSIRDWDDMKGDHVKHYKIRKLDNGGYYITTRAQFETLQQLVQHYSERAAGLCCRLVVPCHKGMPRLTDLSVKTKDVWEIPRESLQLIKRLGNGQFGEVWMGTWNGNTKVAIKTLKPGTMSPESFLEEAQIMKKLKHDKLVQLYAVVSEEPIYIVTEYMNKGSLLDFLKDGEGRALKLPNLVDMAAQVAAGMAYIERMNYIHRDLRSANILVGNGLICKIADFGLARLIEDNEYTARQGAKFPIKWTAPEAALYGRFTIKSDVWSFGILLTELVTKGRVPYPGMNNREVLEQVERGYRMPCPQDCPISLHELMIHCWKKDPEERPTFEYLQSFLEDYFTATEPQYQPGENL

For data set [8] the target is unchanged. Put plainly: Inhibition of Fyn activation (unknown origin) by ADP-Glo kinase assay. In general terms: In ADP-Glo the light output rises with the ADP produced.
Target sequence in this assay (P06241 2-537 limits assumed): as above
A short description of data set [9]: Aggregation property of the compound in PBS buffer at 10 to 100 uM incubated for 2 hrs by UV/Vis double beam spectrophotometric method. The class given is physicochemical. The note with it: dose 10-100 µM.
For data set [10], the target named is T1, Tyrosine-protein kinase Fyn. In words: Inhibition of natural amyloid beta (1 to 42) -induced Fyn activation in hiPSC neural progenitor cells assessed as reduction in Fyn production at 10 uM preincubated fot 45 mins followed by amyloid beta addition and measured after 15 mins by DAPI/Alexa fluor 594 immunostaining based assay. The conditions noted are these: Induced pluripotent stem cell-derived neuron, time 60.0 min.
Target sequence in this assay (P06241 2-537 limits assumed): as above

Data set [11] deals with Amyloid-beta precursor protein (Homo sapiens) (UniProt P05067). Put plainly: Inhibition of human amyloid beta (1 to 42) self-induced aggregation at 50 uM by Thioflavin T based fluorometric assay.
A short description of data set [12]: Aggregation property of the compound in PBS buffer assessed as aggregate formation at 10 to 100 uM incubated for 2 hrs by light scattering spectrofluorimetric assay. The note with it: dose 10-100 µM. In kind it is physicochemical.
Data set [13] in a line: Cytotoxicity against hiPSC neural cells assessed as reduction in cell viability up to 100 uM incubated for 24 hrs by MTT assay. In kind it is cell-based. The note with it: human, induced pluripotent stem cell-derived neuron.
For data set [14] the following is noted: pampa, pH 7.4, 16 h.
Data set [15] can be described thus: Competitive inhibition of Saccharomyces cerevisiae alpha-glucosidase assessed as inhibition constant for inhibitor-enzyme complex formation using p-nitrophenyl glycosides as substrate measured for 125 secs by spectrophotometry analysis.
In another data set the test system is Saccharomyces cerevisiae. Put plainly: Competitive inhibition of Saccharomyces cerevisiae alpha-glucosidase at 100 uM using p-nitrophenyl glycosides as substrate measured for 125 secs by spectrophotometry analysis relative to control. The conditions noted are these: time 125.0 sec.
Data set [16] is described as follows: Membrane retention of compound at pH 7.4 incubated for 16 hrs by PAMPA assay. The class given is ADME. The note with it: pH 7.4, 16 h.
Data set [17] can be described thus: Aqueous solubility of the compound in 5 % DMSO at 50 to 100 uM incubated for 2 hrs. In kind it is physicochemical. The note with it: buffer, dose 50-100 µM.
For data set [18] the following is noted: buffer, 100 µM.

Sequence of Acetylcholinesterase (Electrophorus electricus) (O42275 24-633 limits assumed): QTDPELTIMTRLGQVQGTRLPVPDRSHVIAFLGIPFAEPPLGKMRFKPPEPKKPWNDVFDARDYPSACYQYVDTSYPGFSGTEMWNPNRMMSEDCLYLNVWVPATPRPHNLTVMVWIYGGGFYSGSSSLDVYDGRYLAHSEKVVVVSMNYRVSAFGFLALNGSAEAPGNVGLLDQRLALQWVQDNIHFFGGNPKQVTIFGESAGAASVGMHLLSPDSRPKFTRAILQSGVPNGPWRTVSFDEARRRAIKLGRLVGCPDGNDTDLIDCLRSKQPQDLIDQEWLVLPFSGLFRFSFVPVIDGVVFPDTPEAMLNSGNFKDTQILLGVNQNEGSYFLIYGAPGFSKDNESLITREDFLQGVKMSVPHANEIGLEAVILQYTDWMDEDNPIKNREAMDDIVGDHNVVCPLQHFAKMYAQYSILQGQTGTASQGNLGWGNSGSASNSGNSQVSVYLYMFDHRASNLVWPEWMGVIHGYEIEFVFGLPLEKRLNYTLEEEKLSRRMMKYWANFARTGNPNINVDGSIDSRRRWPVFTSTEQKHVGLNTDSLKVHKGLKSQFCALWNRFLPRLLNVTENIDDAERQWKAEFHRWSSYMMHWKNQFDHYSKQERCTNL
Sequence of Cholinesterase (Equus caballus) (P81908 whole entry): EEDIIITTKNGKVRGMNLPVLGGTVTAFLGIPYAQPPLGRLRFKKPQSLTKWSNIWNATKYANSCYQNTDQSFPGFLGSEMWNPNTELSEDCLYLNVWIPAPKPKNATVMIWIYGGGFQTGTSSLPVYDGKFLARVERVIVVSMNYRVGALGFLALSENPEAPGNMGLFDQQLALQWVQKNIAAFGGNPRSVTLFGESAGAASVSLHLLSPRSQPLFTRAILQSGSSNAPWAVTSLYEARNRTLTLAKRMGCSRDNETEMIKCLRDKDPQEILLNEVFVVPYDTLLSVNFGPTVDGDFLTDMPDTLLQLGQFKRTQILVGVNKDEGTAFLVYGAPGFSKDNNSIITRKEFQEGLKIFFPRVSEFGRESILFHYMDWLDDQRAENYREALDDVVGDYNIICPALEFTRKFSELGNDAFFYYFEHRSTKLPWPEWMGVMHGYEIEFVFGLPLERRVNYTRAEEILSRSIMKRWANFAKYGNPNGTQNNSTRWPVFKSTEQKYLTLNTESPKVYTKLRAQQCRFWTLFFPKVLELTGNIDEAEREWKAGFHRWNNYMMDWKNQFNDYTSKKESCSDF
Sequence of Amyloid-beta precursor protein (Homo sapiens) (P05067 whole entry): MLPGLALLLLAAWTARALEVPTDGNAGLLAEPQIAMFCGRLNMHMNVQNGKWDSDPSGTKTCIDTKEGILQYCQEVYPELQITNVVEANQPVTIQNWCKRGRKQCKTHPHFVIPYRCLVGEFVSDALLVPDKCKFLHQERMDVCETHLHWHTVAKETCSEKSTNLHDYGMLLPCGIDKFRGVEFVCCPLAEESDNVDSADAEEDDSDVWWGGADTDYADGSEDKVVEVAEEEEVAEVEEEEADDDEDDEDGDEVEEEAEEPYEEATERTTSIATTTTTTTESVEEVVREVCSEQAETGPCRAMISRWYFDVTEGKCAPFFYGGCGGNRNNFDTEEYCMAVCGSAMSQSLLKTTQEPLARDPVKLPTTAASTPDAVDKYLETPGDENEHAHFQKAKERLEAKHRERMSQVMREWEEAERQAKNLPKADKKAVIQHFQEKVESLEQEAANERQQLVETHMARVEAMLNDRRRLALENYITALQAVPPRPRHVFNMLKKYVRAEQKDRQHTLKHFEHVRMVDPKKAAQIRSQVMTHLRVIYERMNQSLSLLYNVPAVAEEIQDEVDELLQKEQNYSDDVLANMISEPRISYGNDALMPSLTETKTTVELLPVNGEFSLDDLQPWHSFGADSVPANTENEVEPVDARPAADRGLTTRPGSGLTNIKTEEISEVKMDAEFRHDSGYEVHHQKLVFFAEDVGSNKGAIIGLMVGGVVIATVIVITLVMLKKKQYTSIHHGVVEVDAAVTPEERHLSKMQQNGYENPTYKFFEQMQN

`COC[C@H]1O[C@@H](c2c(O)ccc3ccccc23)[C@H](OC)[C@@H](OC)[C@@H]1OC`: the “inhibition (INH)” value in [1] was “Not Active”. In addition, in data set [2], the inhibition was found to be 23%. The compound further had a logD at 2 h, 1 µM in data set [3] of 2.7. In addition, in [4], the inhibition entry is “inactive”. For the same compound, in data set [5], the Activity result is on record as “Non-Toxic”.
`O=c1c(-c2ccc(O)cc2)coc2c([C@@H]3O[C@H](CO)[C@@H](O)[C@H](O)[C@H]3O)c(O)cc(O)c12`: in [3], the logD at 2 h, 1 µM is -0.1.
`COC[C@H]1O[C@@H](c2c(O)cc(O)c(C(C)=O)c2O)[C@H](OC)[C@@H](OC)[C@@H]1OC`: in [1], the “inhibition (INH)” value was “Not Active”. The compound further gave an inhibition in data set [2] of 16%. In data set [3], the logD at 2 h, 1 µM was 2.3. In addition, the Activity entry in data set [6] was “Non-Toxic”; in data set [9], “Not Active”; in data set [5] it was “Non-Toxic”; in data set [12], “Not Active”. Also, the inhibition result in data set [4], in [8] and in [11] was “inactive” each time. In addition, the inhibition result in data set [7] and in data set [10] was “Active” each time.
With `O=C(Oc1ccc([C@@H]2O[C@H](CO)[C@@H](O)[C@H](O)[C@H]2O)cc1OC(=O)c1ccccc1)c1ccccc1`, the “inhibition (INH)” value in data set [1] was “Not Active”. In [2], the inhibition turned out to be 39%. For the same compound, the Activity entry in data set [13] is given as “Non-Toxic”; in [9], “Not Active”; in data set [5], “Non-Toxic”; in data set [12], “Not Active”. For the same compound, the inhibition result in data set [4] and in data set [11] was “inactive” each time. Also, the inhibition result in data set [7] and in data set [10] was “Active” throughout.
Take `CC(=O)c1c(O)cc(O)c([C@@H]2O[C@H](CO)[C@@H](O)[C@H](O)[C@H]2O)c1O`: the “inhibition (INH)” value in data set [1] is on record as “Not Active”. The inhibition in data set [2] worked out at 15%. Also, the Activity entry in data set [13] was “Non-Toxic”; in [9], “Not Active”; in data set [5], “Non-Toxic”; in [12], “Not Active”. Besides, the inhibition result in [4] was “inactive”. The inhibition entry in data set [7] and in [10] was “Active” throughout. The logPeff result in data set [14] was “Bld”.
For the compound `O=C(Cc1ccccc1)c1c(O)cc(O)cc1O`, the inhibition entry in data set [11] was “inactive”.
For `O=C(Oc1ccccc1O[C@H]1O[C@H](CO)[C@@H](O)[C@H](O)[C@H]1O)c1ccccc1`, in data set [1], the “inhibition (INH)” value is “Not Active”. Besides, the inhibition in data set [2] amounted to 17%; in [4], 10%; in the data set on Saccharomyces cerevisiae, 74%. The logD at 2 h, 1 µM in data set [3] is 0.1. In addition, the Ki in data set [15] worked out at 39 µM. The inhibition result in data set [7] and in [11] was “inactive” in each case. Besides, the Activity entry in data set [9] is “Not Active”; in data set [5] it was “Non-Toxic”; in data set [12], “Not Active”.
`O=C(Oc1ccc(O)c([C@@H]2O[C@H](CO)[C@@H](O)[C@H](O)[C@H]2O)c1)c1ccccc1`: in [1], the “inhibition (INH)” value is “Not Active”. Also, the inhibition result in [2], in data set [4] and in data set [11] was “inactive” each time. The logD at 2 h, 1 µM in [3] is < 0.5. Also, the Activity result is listed as “Not Active” in data set [9], “Non-Toxic” in data set [5] and “Not Active” in [12]. In addition, the inhibition entry in data set [10] is “Active”.
As to `OC[C@H]1O[C@@H](c2c(O)ccc3ccccc23)[C@H](O)[C@@H](O)[C@@H]1O`, the “inhibition (INH)” value in data set [1] is “Not Active”. The inhibition in data set [2] was determined as 10%. The inhibition entry in [4] and in [11] was “inactive” in each case. Besides, the Activity result is reported as “Not Active” in [9], “Non-Toxic” in [5] and “Not Active” in data set [12]. The inhibition entry in data set [10] was “Active”.
`O=C(Cc1ccccc1)c1c(O)cc(O)c([C@@H]2O[C@H](CO)[C@@H](O)[C@H](O)[C@H]2O)c1O` had an inhibition in data set [2] of 17%. In data set [4], the inhibition result was “inactive”.
With `COC[C@H]1O[C@@H](c2cc(O)ccc2O)[C@H](OC)[C@@H](OC)[C@@H]1OC`, the “inhibition (INH)” value in [1] is “Not Active”. In data set [2], the inhibition stood at 21%. Also, the inhibition result in [4] and in data set [11] was “inactive” throughout. The inhibition entry in data set [7] and in data set [8] was “Active” each time. The Activity result is recorded as “Not Active” in [9], “Non-Toxic” in [5] and “Not Active” in [12].
Take `COC[C@H]1O[C@@H](c2ccc(O)c(O)c2)[C@H](OC)[C@@H](OC)[C@@H]1OC`: the “inhibition (INH)” value in [1] is “Not Active”. For the same compound, the inhibition in data set [2] worked out at 16%; in [4] it was 15%. The compound further displayed a logD at 2 h, 1 µM in data set [3] of 1.1. The inhibition result in data set [11] is “inactive”. Besides, in [5], the Activity entry was “Non-Toxic”.
On to `Oc1ccc(OC2O[C@H](COCc3ccccc3)[C@@H](OCc3ccccc3)[C@H](OCc3ccccc3)[C@H]2OCc2ccccc2)cc1` (stereo partly specified), for which, in data set [11], the inhibition entry was “inactive”.
With `CC(=O)N1CCN(c2ccc(OCC3COC(Cn4ccnc4)(c4ccc(Cl)cc4Cl)O3)cc2)CC1` (stereo unspecified) [KETOCONAZOLE], the Activity result in [12] is given as “Not Active”.
Regarding `COC[C@H]1O[C@@H](c2cc(OC(=O)c3ccccc3)ccc2O)[C@H](OC)[C@@H](OC)[C@@H]1OC`, the “inhibition (INH)” value in data set [1] is reported as “Not Active”. The same compound showed a Drug uptake in data set [16] of 80%. Also, the inhibition in [2] stood at 12%; in data set [4], 14%. This compound returned a logD at 2 h, 1 µM in [3] of 3.2. For the same compound, the Activity entry in data set [5] is listed as “Non-Toxic”.
For `O=C(Oc1ccc(O[C@H]2O[C@H](CO)[C@@H](O)[C@H](O)[C@H]2O)cc1)c1ccccc1`, the “inhibition (INH)” value in [1] is on record as “Not Active”. Further, in [2], the inhibition was determined as 10%. Also, the Activity result in data set [13] and in data set [5] was “Non-Toxic” in each case. The logD at 2 h, 1 µM in [3] was determined as 1. The inhibition entry in data set [4] was “inactive”. For the same compound, the inhibition result in data set [7] was “Active”. The logPeff entry in data set [14] is recorded as “Not Active”.
As for `O=C(Cc1ccccc1)Oc1cc(O)cc(O)c1`, in data set [11], the inhibition result is “inactive”.
On to `COC[C@H]1O[C@@H](c2c(O)cc(O)cc2O)[C@H](OC)[C@@H](OC)[C@@H]1OC`, for which, in data set [1], the “inhibition (INH)” value is “Not Active”. The same compound yielded an inhibition in data set [2] of 10%. Also, the logD at 2 h, 1 µM in [3] is 1.6. Further, the inhibition entry in [4] and in [7] was “inactive” in each case. Further, the inhibition result in data set [8] and in [10] was “Active” in each case. Moreover, the Activity entry in data set [9] is given as “Not Active”; in data set [5], “Non-Toxic”; in [12] it was “Not Active”.
Take `COC[C@H]1O[C@@H](c2cc(OC(=O)c3ccccc3)ccc2OC(=O)c2ccccc2)[C@H](OC)[C@@H](OC)[C@@H]1OC`: in data set [1], the “inhibition (INH)” value was “Not Active”. Besides, the inhibition in data set [2] is 16%; in data set [4], 19%. In data set [3], the logD at 2 h, 1 µM was > 2.5. For the same compound, the solubility entry in data set [17] and in data set [18] was “Insoluble” each time. Besides, the inhibition entry in data set [7] and in [10] was “Active” in each case. The Activity result in [5] is reported as “Non-Toxic”. Further, the logPeff result in data set [14] is “Not Active”.
`O=C(Oc1ccc(OC(=O)c2ccccc2)c([C@@H]2O[C@H](CO)[C@@H](O)[C@H](O)[C@H]2O)c1)c1ccccc1`: the “inhibition (INH)” value in data set [1] was “Not Active”. The compound further yielded an inhibition in [2] of 21%. Besides, the logD at 2 h, 1 µM in [3] amounted to 2. Besides, the inhibition entry in data set [4] is “inactive”. Besides, the Activity entry in data set [5] is on record as “Non-Toxic”.

What is called inhibition is the relative decrease from the control value, in per cent. As usually defined, the logD is lipophilicity at a set pH, counting ionised and neutral species. As usually defined, the Ki is a measure of affinity in units of concentration, obtained from inhibition or displacement.
